Assay results published in PubChem BioAssay (NCI).
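How tested: cells in 96-well plates exposed to compound for 48 hours at five concentrations. GI50 marks 50% less growth. TGI: total growth inhibition.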

Tests used:
Experiment in all cases: growth of human tumour cells (NCI), 48 h
BT-549 breast = tested on: BT-549 breast
SN12C renal = tested on: SN12C renal
EKVX NSCLC = tested on: EKVX NSCLC
MDA-MB-231 breast = tested on: MDA-MB-231 breast
HS 578T breast = tested on: HS 578T breast
OVCAR-4 ovarian = tested on: OVCAR-4 ovarian
NCI-H522 lung = tested on: NCI-H522 lung
CCRF-CEM leukemia = tested on: CCRF-CEM leukemia
SR leukemia = tested on: SR leukemia
SF-295 CNS = tested on: SF-295 CNS

Row | Compound | TGI (BT-549 breast) | TGI (SN12C renal) | TGI (EKVX NSCLC) | TGI (MDA-MB-231 breast) | TGI (HS 578T breast) | TGI (OVCAR-4 ovarian) | TGI (NCI-H522 lung) | TGI (CCRF-CEM leukemia) | TGI (SR leukemia) | TGI (SF-295 CNS) | GI50 (BT-549 breast) | GI50 (SN12C renal) | GI50 (EKVX NSCLC) | GI50 (MDA-MB-231 breast) | GI50 (HS 578T breast) | GI50 (OVCAR-4 ovarian) | GI50 (NCI-H522 lung) | GI50 (CCRF-CEM leukemia) | GI50 (SR leukemia) | GI50 (SF-295 CNS)
1 | CC1OC(n2cc(F)c(=O)[nH]c2=O)CCC1O (centres undefined) | > 100 µM | > 100 µM | > 100 µM | > 100 µM | > 100 µM | > 100 µM | > 100 µM | > 100 µM | > 100 µM | > 100 µM | – | – | – | – | – | – | – | – | – | –
2 | C[C@]12CC[C@H](O)CC1=CC[C@@H]1[C@@H]2CC[C@]2(C)C(c3cccnc3)=CC[C@@H]12 | > 100 µM | > 100 µM | > 100 µM | > 100 µM | > 100 µM | > 100 µM | > 100 µM | > 100 µM | > 100 µM | > 100 µM | 21.7 µM | > 100 µM | 6.08 µM | > 27.1 µM | 7.13 µM | 95.2 µM | 10.1 µM | > 96.6 µM | 9.44 µM | 6.07 µM
3 | Cc1nn(CN2CCN(C)CC2)c(=S)n1/N=C/c1cccc2ccccc12 | 47.3 µM | 39.2 µM | > 100 µM | 44.4 µM | 74.8 µM | 19.4 µM | 39.8 µM | 55.3 µM | 38.5 µM | 59.5 µM | 21.1 µM | 24.4 µM | 31.8 µM | 19.3 µM | 26.8 µM | 2.11 µM | 19 µM | 23.4 µM | 19 µM | 24.9 µM
4 | CC[CH2][Pb]([CH2]CC)([CH2]CC)[O]C(=O)C(F)(F)F | 0.707 µM | 0.535 µM | – | 0.44 µM | 0.759 µM | 0.178 µM | 0.348 µM | 0.775 µM | – | 0.434 µM | 0.222 µM | 0.195 µM | – | 0.142 µM | 0.0947 µM | 0.0385 µM | 0.181 µM | 0.0906 µM | – | 0.182 µM
5 | Cc1ccc2c(c1)C(=O)/C(=C/c1ncc([N+](=O)[O-])n1C)O2 | 5.48 µM | 6.55 µM | – | 6.92 µM | > 23.2 µM | > 22.7 µM | 3.38 µM | 2.95 µM | 0.431 µM | 7.82 µM | 1.95 µM | 1.77 µM | – | 1.56 µM | 1.94 µM | 2.15 µM | 1.5 µM | 0.324 µM | 0.0379 µM | 2.22 µM
6 | CCCCC/C(C=C(C#N)C#N)=C/c1ccccc1 | 8.75 µM | 16.9 µM | > 55.7 µM | 16.2 µM | 4.76 µM | > 55.8 µM | 19.7 µM | 6.96 µM | – | 14.6 µM | 2.52 µM | 3.74 µM | 5.98 µM | 3.85 µM | 1.87 µM | 7.74 µM | 4.5 µM | 2.51 µM | – | 2.76 µM
7 | O=C1NNC=Nc2ccc(cc2)S(=O)(=O)c2ccc(cc2)N=CNNC1=O | > 100 µM | > 100 µM | > 100 µM | > 100 µM | > 100 µM | > 100 µM | > 100 µM | – | – | > 100 µM | – | – | – | – | – | – | – | – | – | –
8 | CSc1ccc(C2=NN(C(C)=O)C(c3cc(C)cs3)C2)cc1 (centres undefined) | 63.7 µM | > 100 µM | > 100 µM | > 100 µM | 88.6 µM | > 100 µM | 74.9 µM | > 100 µM | – | > 100 µM | 17.1 µM | 26.2 µM | 24.3 µM | 27.5 µM | 22.3 µM | 18 µM | 17.9 µM | 26.7 µM | – | 22.4 µM
9 | O=C(Nc1ccc(N2CCNCC2)cc1)c1[nH]ncc1Nc1cc(Oc2ccccc2)ncn1 | 3.58 µM | 9.31 µM | 6.79 µM | 5.72 µM | 14.8 µM | – | 8.19 µM | 4.73 µM | 1.84 µM | 3.27 µM | 1.84 µM | 3.19 µM | 1.99 µM | 2.03 µM | 3.06 µM | 2.59 µM | 2.14 µM | 1.83 µM | 0.299 µM | 1.7 µM
10 | O=C1c2cccc(NCCN=Cc3cc(O)ccc3O)c2C(=O)c2c(NCCN=Cc3cc(O)ccc3O)cccc21 | 7.77 µM | 3.9 µM | 5.77 µM | 2.25 µM | 3.78 µM | 2.64 µM | 3.24 µM | 1.63 µM | 3.1 µM | 4.24 µM | 1.89 µM | 0.737 µM | 1.8 µM | 0.877 µM | 1.03 µM | 0.573 µM | 1.33 µM | 0.351 µM | 0.601 µM | 1.36 µM
11 | O=C1/C(=C/c2ccc(Br)cc2)C=C(c2ccccc2)N1CCc1ccccc1 | 9.06 µM | 20.4 µM | 19 µM | 24.7 µM | 5.33 µM | 3.13 µM | 87.1 µM | > 100 µM | > 100 µM | 1.59 µM | 2.59 µM | 2.15 µM | 1.95 µM | 1.67 µM | 0.831 µM | 0.554 µM | 6.54 µM | 7.76 µM | 11.6 µM | 0.332 µM
12 | O=C(O)Cn1ccc(=O)c2ccc([N+](=O)[O-])cc21 | > 100 µM | > 100 µM | – | 78.5 µM | > 100 µM | – | > 100 µM | > 100 µM | > 100 µM | > 100 µM | – | – | – | – | – | – | – | – | – | –
13 | COc1cc(/C=C/c2cc(/C=C/c3ccc(O)c(OC)c3)n(-c3ccccc3)n2)ccc1O | 22.8 µM | 2.2 µM | 3.7 µM | 6.94 µM | > 23.2 µM | 4.95 µM | – | > 100 µM | > 100 µM | – | 0.631 µM | 0.313 µM | 1.12 µM | 0.557 µM | 0.157 µM | 0.536 µM | – | 0.127 µM | 0.0353 µM | –
14 | O=C1CNCCCN2CCN(CCCNCC(=O)Nc3ccc(cc3)S(=O)(=O)c3ccc(cc3)NC(=O)CNCCCN3CCN(CCCNCC(=O)Nc4ccc(cc4)S(=O)(=O)c4ccc(cc4)N1)CC3)CC2 | 58.4 µM | > 80.9 µM | > 100 µM | 52.1 µM | > 69.4 µM | 97.7 µM | 53.8 µM | > 100 µM | – | > 62.6 µM | – | – | – | – | – | – | – | – | – | –
15 | N#Cc1ccc(C#Cc2ccccc2C#CCCCCO)cc1 | 29.3 µM | 31.8 µM | 35.3 µM | 31.3 µM | 64.2 µM | 65.9 µM | 31.1 µM | 29.1 µM | – | 41 µM | 14.7 µM | 17.7 µM | 17.9 µM | 16.7 µM | 25.7 µM | 26.2 µM | 16.1 µM | 14.8 µM | – | 21.3 µM
16 | Nc1ccn(C2O[C@H](CO)[C@@H](O)[C@@H]2O)c(=O)n1 (some centres undefined) | > 100 µM | > 100 µM | > 100 µM | > 100 µM | > 100 µM | > 100 µM | > 100 µM | – | > 100 µM | > 100 µM | – | – | – | – | – | – | 26.5 µM | – | > 100 µM | –
17 | N#C/C(=C1C=C/C(=N/O)C(Br)=C/1)c1ccccc1 | 27.3 µM | 16.8 µM | – | 6.73 µM | 8.09 µM | 37.9 µM | 5.23 µM | 8.91 µM | 8.48 µM | 8.47 µM | 9.59 µM | 3.68 µM | – | 2.27 µM | 2.52 µM | 5.41 µM | 1.87 µM | 0.661 µM | 0.545 µM | 2.81 µM
18 | O=C1c2c(c3c4ccccc4n(CCCCCCBr)c3c3[nH]c4ccccc4c23)C(=O)N1O | 6.53 µM | 12.8 µM | 9.57 µM | 9.52 µM | 45.9 µM | 23.4 µM | – | 5.53 µM | 4.71 µM | 9.01 µM | 1.83 µM | 3.68 µM | 2.58 µM | 2.9 µM | 5.14 µM | 3.45 µM | – | 2.14 µM | 1.23 µM | 2.75 µM
19 | Cn1cc(-c2cnc3ccc(NC(=O)Nc4ccc(F)c(Br)c4)cc3n2)cn1 | 3.24 µM | 4.79 µM | 7.96 µM | 4.14 µM | 5.15 µM | 5.55 µM | 4.75 µM | 6.21 µM | – | 3.73 µM | 1.51 µM | 1.87 µM | 2.55 µM | 1.78 µM | 2 µM | 1.53 µM | 1.71 µM | 2.06 µM | – | 1.89 µM
20 | CN(C)CCNc1cc(-c2ccccc2)nc2ccccc12 | 28.8 µM | 44.1 µM | – | 32.5 µM | 37.1 µM | 37.4 µM | 27.8 µM | 37.3 µM | 8.37 µM | 46.9 µM | 11.5 µM | 6.55 µM | – | 7.45 µM | 12 µM | 7.45 µM | 8.11 µM | 4.43 µM | 2.72 µM | 7.85 µM
21 | CN1CCN(Cc2ccc(NC(=O)c3cncc(C#Cc4cnc(N)c5ccc(C#N)cc45)c3)cc2C(F)(F)F)CC1 | 10.8 µM | 0.611 µM | 6.13 µM | 0.228 µM | 0.406 µM | – | 1.69 µM | 2.05 µM | 2.4 µM | 9.95 µM | 0.729 µM | 0.0218 µM | 0.185 µM | 0.037 µM | 0.0217 µM | – | 0.088 µM | 0.0803 µM | 0.0464 µM | 0.214 µM
